Ki data for 19 molecules are collected here from US20110166121A1 (LG LIFE SCIENCES LTD., priority 2008, published 2011).

Each structure is given as a SMILES string. Counter-ions that a name gives are not always drawn.

The test system of this assay is Human platelet aggregation caused by ADP. Briefly: Inhibition of ADP-induced platelet aggregation (Mimic-human PRP). The assay is classed as cell-based. The settings on record: 20 μM ADP, human platelet concentrate diluted with PPP, absorption at 595 nm. The method, boiled down: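 Human PRP diluted with PPP to 3–4×10^8 platelets/mL was preincubated 20 min at room temperature with compound (0.01–30 μM, DMSO), then stimulated with 20 μM ADP. Aggregation read as A595 increase at 3 min versus 0 and 20 μM ADP controls; Ki from sigmoidal non-linear regression.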
`CCCc1cc2c(N3CCn4c(nnc4C(F)(F)F)C3)nc(OCC(C)NC=O)nc2s1` (stereo not shown) [Example 9-75, N-{1-Methyl-2-[6-propyl-4-(3-trifluoromethyl-5,6-dihydro-8H-[1,2,4]triazolo[4,3-a]pyrazin-7-yl)-thieno[2,3-d]pyrimidin-2-yloxy]-ethyl}-formamide]: the inhibitory constant (Ki) (in general, the equilibrium dissociation constant of an inhibitor or competing ligand from its target) stood at 3 nM.
Under `CCCc1cc2c(N3CCn4c(nnc4C(F)(F)F)C3)nc(OCCCCNC=O)nc2s1` [Example 9-91, N-{4-[6-Propyl-4-(3-trifluoromethyl-5,6-dihydro-8H-[1,2,4]triazolo[4,3-a]pyrazin-7-yl)-thieno[2,3-d]pyrimidin-2-yloxy]-butyl}-formamide] stands 190 nM; under `CCCc1cc2c(N3CCn4c(nnc4C(F)(F)F)C3)nc(OC3CN(C(=O)C(C)C)C3)nc2s1` [Example 8-27, 2-Methyl-1-{3-[6-propyl-4-(3-trifluoromethyl-5,6-dihydro-8H-[1,2,4]triazolo[4,3-a]pyrazin-7-yl)-thieno[2,3-d]pyrimidin-2-yloxy]-azetidin-1-yl}-propan-1-one], 260 nM; under `CCCC(=O)N[C@@H]1CCN(c2nc(N3CCn4c(nnc4C(F)(F)F)C3)c3cc(CCC)sc3n2)C1` [Example 7-4, Hydrochloric acid salt of N-{(R)-1-[6-Propyl-4-(3-trifluoromethyl-5,6-dihydro-8H-[1,2,4]triazolo[4,3-a]pyrazin-7-yl)-thieno[2,3-d]pyrimidin-2-yl]-pyrrolidin-3-yl}-butyramide], 75 nM.
`CCCc1cc2c(N3CCn4c(nnc4C(F)(F)F)C3)nc(OCCNC(=O)C3CC3)nc2s1` [Example 3-59, Cyclopropanecarboxylic Acid {2-[6-propyl-4-(3-trifluoromethyl-5,6-dihydro-8H-[1,2,4]triazolo[4,3-a]pyrazin-7-yl)-thieno[2,3-d]pyrimidin-2-yloxy]-ethyl}-amide] gave a Ki of 1.5 nM. This Ki is about 50-fold lower than that of the molecule before.
Then `CCCc1cc2c(N3CCn4c(nnc4C(F)(F)F)C3)nc(N3CC[C@H](NC(=O)C(F)(F)F)C3)nc2s1` [Example 1-106, 2,2,2-Trifluoro-N-{(S)-1-[6-propyl-4-(3-trifluoromethyl-5,6-dihydro-8H-[1,2,4]triazolo[4,3-a]pyrazin-7-yl)-thieno[2,3-d]pyrimidin-2-yl]-pyrrolidin-3-yl}-acetamide], with 16 nM.
Then `CCCc1cc2c(N3CCn4c(nnc4C(F)(F)F)C3)nc(N3CCCC(C(=O)NO)C3)nc2s1` (stereo not shown) [Example 1-95, 1-[6-Propyl-4-(3-trifluoromethyl-5,6-dihydro-8H-[1,2,4]triazolo[4,3-a]pyrazin-7-yl)-thieno[2,3-d]pyrimidin-2-yl]-piperidine-3-carboxylic acid hydroxyamide], with 11 nM.
Consider `CCCc1cc2c(N3CCn4c(nnc4C(F)(F)F)C3)nc(-n3cnc(CCN)c3)nc2s1` [Example 9-46, 2-{1-[6-Propyl-4-(3-trifluoromethyl-5,6-dihydro-8H-[1,2,4]triazolo[4,3-a]pyrazin-7-yl)-thieno[2,3-d]pyrimidin-2-yl]-1H-imidazol-4-yl}-ethylamine], for which the affinity corresponds to a Ki of 530 nM.
`CCCc1cc2c(N3CCn4c(nnc4C(F)(F)F)C3)nc(N(C)CCNC(C)=O)nc2s1` [Example 9-40, N-(2-{Methyl-[6-propyl-4-(3-trifluoromethyl-5,6-dihydro-8H-[1,2,4]triazolo[4,3-a]pyrazin-7-yl)-thieno[2,3-d]pyrimidin-2-yl]-amino}-ethyl)-acetamide]: the affinity corresponds to a Ki of 22 nM.
As for `CCCc1cc2c(N3CCn4c(nnc4C(F)(F)F)C3)nc(OCC(C)(C)NC(=O)OC)nc2s1` [Example 9-82, {1,1-Dimethyl-2-[6-propyl-4-(3-trifluoromethyl-5,6-dihydro-8H-[1,2,4]triazolo[4,3-a]pyrazin-7-yl)-thieno[2,3-d]pyrimidin-2-yloxy]-ethyl}-carbamic acid methyl ester], affinity was put at a Ki of 5 nM. Against the preceding molecule, the Ki is about 4.4-fold lower.
As for `CCCC(=O)N1CC[C@H](Nc2nc(N3CCn4c(nnc4C(F)(F)F)C3)c3cc(CCC)sc3n2)C1` [Example 8-14, 1-{(S)-3-[6-Propyl-4-(3-trifluoromethyl-5,6-dihydro-8H-[1,2,4]triazolo[4,3-a]pyrazin-7-yl)-thieno[2,3-d]pyrimidin-2-ylamino]-pyrrolidin-1-yl}-butan-1-one], the Ki was found to be 3 nM.
Under `CCCc1cc2c(N3CCn4c(nnc4C(F)(F)F)C3)nc(NCCNC(=O)C(C)C)nc2s1` [Example 8-9, N-{2-[6-Propyl-4-(3-trifluoromethyl-5,6-dihydro-8H-[1,2,4]triazolo[4,3-a]pyrazin-7-yl)-thieno[2,3-d]pyrimidin-2-ylamino]-ethyl}-isobutyramide] stands 150 nM.
Under `CCCC(=O)NC[C@@H]1CCN(c2nc(N3CCn4c(nnc4C(F)(F)F)C3)c3cc(CCC)sc3n2)C1` [Example 8-2, N-{(S)-1-[6-Propyl-4-(3-trifluoromethyl-5,6-dihydro-8H-[1,2,4]triazolo[4,3-a]pyrazin-7-yl)-thieno[2,3-d]pyrimidin-2-yl]-pyrrolidin-3-ylmethyl}-butyramide] stands 110 nM.
Under `CCCc1cc2c(N3CCn4c(nnc4C(F)(F)F)C3)nc(NC[C@H]3CCN(C(C)=O)C3)nc2s1` [Example 8-22, 1-((R)-3-{[6-Propyl-4-(3-trifluoromethyl-5,6-dihydro-8H-[1,2,4]triazolo[4,3-a]pyrazin-7-yl)-thieno[2,3-d]pyrimidin-2-ylamino]-methyl}-pyrrolidin-1-yl)-ethanone] stands 220 nM.
In the case of `CCCc1cc2c(N3CCn4c(nnc4C(F)(F)F)C3)nc(N3CC(O)C(NC(=O)CO)C3)nc2s1` (stereo not shown) [Example 7-22, 2-Hydroxy-N-{4-hydroxy-1-[6-propyl-4-(3-trifluoromethyl-5,6-dihydro-8H-[1,2,4]triazolo[4,3-a]pyrazin-7-yl)-thieno[2,3-d]pyrimidin-2-yl]-pyrrolidin-3-yl}-acetamide], the Ki is 4 nM.
Regarding `CCCc1cc2c(N3CCn4c(nnc4C(F)(F)F)C3)nc(N3CC4N=COC4C3)nc2s1` (stereo not shown) [Example 9-34, 7-[6-Propyl-2-(3a,4,6,6a-tetrahydro-pyrrolo[3,4-d]oxazol-5-yl)-thieno[2,3-d]pyrimidin-4-yl]-3-trifluoromethyl-5,6,7,8-tetrahydro-[1,2,4]triazolo[4,3-a]pyrazine], affinity was put at a Ki of 15 nM.
Molecule `CCCc1cc2c(N3CCn4c(nnc4C(F)(F)F)C3)nc(NC[C@H]3CCN(C(=O)C(C)C)C3)nc2s1` [Example 8-24, 2-Methyl-1-((R)-3-{[6-propyl-4-(3-trifluoromethyl-5,6-dihydro-8H-[1,2,4]triazolo[4,3-a]pyrazin-7-yl)-thieno[2,3-d]pyrimidin-2-ylamino]-methyl}-pyrrolidin-1-yl)-propan-1-one] yielded an inhibition constant Ki of 1400 nM. This Ki is about 93-fold higher than that of the molecule before.
Then `CCCc1cc2c(N3CCn4c(nnc4C(F)(F)F)C3)nc(N3CC(Cl)C(NC(C)=O)C3)nc2s1` (stereo not shown) [Example 9-29, N-{4-Chloro-1-[6-propyl-4-(3-trifluoromethyl-5,6-dihydro-8H-[1,2,4]triazolo[4,3-a]pyrazin-7-yl)-thieno[2,3-d]pyrimidin-2-yl]-pyrrolidin-3-yl}-acetamide], with 2.2 nM.
Then `CCCc1cc2c(N3CCn4c(nnc4C(F)(F)F)C3)nc(N3CC[C@H](NC(=O)c4cc(F)c(F)c(F)c4)C3)nc2s1` [Example 9-13, 3,4,5-Trifluoro-N-{(S)-1-[6-propyl-4-(3-trifluoromethyl-5,6-dihydro-8H-[1,2,4]triazolo[4,3-a]pyrazin-7-yl)-thieno[2,3-d]pyrimidin-2-yl]-pyrrolidin-3-yl}-benzamide], with 300 nM.
